Experimental findings from patent US7855166B2, “Sulfonylamino(thio)carbonyl compounds” (Bayer Cropscience GmbH, priority 2005, dated 2010) are described below.

Assay [1] relates to weed plants such as Sinapis alba, Echinochloa crus-galli, Lolium multiflorum, Chrysanthemum segetum, Setaria viridis, Abutilon theophrasti, Amaranthus …. Kind of assay: Post-emergence effect on weeds (greenhouse pot test, visual scoring). It counts as in vivo. Conditions: applied post-emergence (three-leaf stage) at a rate of 0.3 kg or less of active substance per hectare; scored after about 3 to 4 weeks in comparison to untreated controls.

Assay [2] deals with weed plants such as Sinapis alba, Chrysanthemum segetum, Avena sativa, Stellaria media, Echinochloa crus-galli, Lolium multiflorum, Setaria viridis, Abutilon …. Description: Pre-emergence effect on weeds (greenhouse pot test, visual scoring). It counts as in vivo. Conditions: applied pre-emergence at a rate of 0.3 kg or less of active substance per hectare; scored after 3 to 4 weeks in comparison to untreated controls.

The structures appear in SMILES notation.

Turning to `CCCOc1nn(C(=O)NS(=O)(=O)c2ccccc2I)c(=O)n1C1CC1` [Compound 1.014], in assay [1], the “herbicidal action against weed plants (effect scored visually)” value was “very good herbicidal action”. In addition, the “herbicidal action against weed plants (visual scoring of plant damage or emergence damage)” value in assay [2] is “very good herbidical action”.
Taken in the same sequence, the figures for `Cc1cccc(I)c1S(=O)(=O)NC(=O)n1nc(C2CC2)n(C2CC2)c1=O` [Compound 1.815] were “very good herbicidal action” and “very good herbidical action”.
On to `CCCOc1nn(C(=O)NS(=O)(=O)c2c(C)cccc2I)c(=O)n1C1CC1` [Compound 1.044], for which the “herbicidal action against weed plants (effect scored visually)” value in assay [1] was “very good herbicidal action”. Moreover, the “herbicidal action against weed plants (visual scoring of plant damage or emergence damage)” value in assay [2] is “very good herbidical action”.
As for `CC(C)Oc1nn(C(=O)NS(=O)(=O)c2c(I)cccc2OC(C)C(F)(F)F)c(=O)n1C` (stereo not shown) [Compound 1.527], in assay [1], the “herbicidal action against weed plants (effect scored visually)” value is “very good herbicidal action”. Also, the “herbicidal action against weed plants (visual scoring of plant damage or emergence damage)” value in assay [2] is listed as “very good herbidical action”.
On to `CCOc1nn(C(=O)NS(=O)(=O)c2c(Cl)ccc(Cl)c2I)c(=O)n1C1CC1` [Compound 1.854], for which the “herbicidal action against weed plants (effect scored visually)” value in assay [1] was “very good herbicidal action”. In assay [2], the “herbicidal action against weed plants (visual scoring of plant damage or emergence damage)” value was “very good herbidical action”.
Taken in the same sequence, the figures for `CCOc1cccc(I)c1S(=O)(=O)NC(=O)n1nc(OC)n(C2CC2)c1=O` [Compound 1.218] were “very good herbicidal action” and “very good herbidical action”.
Taken in the same sequence, the figures for `CCCOc1nn(C(=O)NS(=O)(=O)c2c(OC)ccc(Cl)c2I)c(=O)n1C1CC1` [Compound 1.822] were “very good herbicidal action” and “very good herbidical action”.
For the compound `CC(C)Oc1nn(C(=O)NS(=O)(=O)c2ccc(C(F)(F)F)cc2I)c(=O)n1C` [Compound 1.895], the “herbicidal action against weed plants (effect scored visually)” value in assay [1] is recorded as “very good herbicidal action”. Also, the “herbicidal action against weed plants (visual scoring of plant damage or emergence damage)” value in assay [2] is recorded as “very good herbidical action”.
On the same counts, the results for `CCOc1nn(C(=O)NS(=O)(=O)c2c(I)cccc2OCC(F)F)c(=O)n1C1CC1` [Compound 1.511] are “very good herbicidal action” and “very good herbidical action”.
With `COc1nn(C(=O)NS(=O)(=O)c2cc(C)c(C)cc2I)c(=O)n1C1CC1` [Compound 1.866], the “herbicidal action against weed plants (effect scored visually)” value in assay [1] is given as “very good herbicidal action”. In addition, the “herbicidal action against weed plants (visual scoring of plant damage or emergence damage)” value in assay [2] is given as “very good herbidical action”.
On the same counts, the results for `CCCCOc1cccc(I)c1S(=O)(=O)NC(=O)n1nc(OCC)n(C)c1=O` [Compound 1.274] are “very good herbicidal action” and “very good herbidical action”.
`CCCOc1nn(C(=O)NS(=O)(=O)c2c(I)cccc2OC)c(=O)n1C` [Compound 1.195]: the “herbicidal action against weed plants (effect scored visually)” value in assay [1] is reported as “very good herbicidal action”. For the same compound, the “herbicidal action against weed plants (visual scoring of plant damage or emergence damage)” value in assay [2] was “very good herbidical action”.
Turning to `CCCOc1nn(C(=O)NS(=O)(=O)c2c(I)cccc2OS(=O)(=O)N(C)C)c(=O)n1C1CC1` [Compound 1.756], the “herbicidal action against weed plants (effect scored visually)” value in assay [1] is “very good herbicidal action”. Besides, the “herbicidal action against weed plants (visual scoring of plant damage or emergence damage)” value in assay [2] was “very good herbidical action”.
On the same counts, the results for `CCOc1nn(C(=O)NS(=O)(=O)c2cc(C)c(C)cc2I)c(=O)n1C1CC1` [Compound 1.867] are “very good herbicidal action” and “very good herbidical action”.
Turning to `CCOc1nn(C(=O)NS(=O)(=O)c2c(I)cccc2OCC(C)C)c(=O)n1C1CC1` [Compound 1.295], the “herbicidal action against weed plants (effect scored visually)” value in assay [1] is listed as “very good herbicidal action”. In addition, in assay [2], the “herbicidal action against weed plants (visual scoring of plant damage or emergence damage)” value is reported as “very good herbidical action”.
Taken in the same sequence, the figures for `CCOc1nn(C(=O)NS(=O)(=O)c2cc(C(F)(F)F)ccc2I)c(=O)n1C` [Compound 1.836] were “very good herbicidal action” and “very good herbidical action”.
On the same counts, the results for `COc1nn(C(=O)NS(=O)(=O)c2c(I)cccc2SC)c(=O)n1C1CC1` [Compound 1.584] are “very good herbicidal action” and “very good herbidical action”.
Take `CCCOc1nn(C(=O)NS(=O)(=O)c2c(I)cccc2OC(F)(F)F)c(=O)n1C` [Compound 1.444]: the “herbicidal action against weed plants (effect scored visually)” value in assay [1] is recorded as “very good herbicidal action”. The “herbicidal action against weed plants (visual scoring of plant damage or emergence damage)” value in assay [2] is reported as “very good herbidical action”.
Consider `CCOc1cccc(I)c1S(=O)(=O)NC(=O)n1nc(OCC)n(C)c1=O` [Compound 1.214], for which the “herbicidal action against weed plants (effect scored visually)” value in assay [1] is “very good herbicidal action”. Besides, the “herbicidal action against weed plants (visual scoring of plant damage or emergence damage)” value in assay [2] is given as “very good herbidical action”.
As to `CCCOc1nn(C(=O)NS(=O)(=O)c2cc(C(F)(F)F)ccc2I)c(=O)n1C` [Compound 1.837], the “herbicidal action against weed plants (effect scored visually)” value in assay [1] is reported as “very good herbicidal action”. In assay [2], the “herbicidal action against weed plants (visual scoring of plant damage or emergence damage)” value is “very good herbidical action”.
On the same counts, the results for `COc1nn(C(=O)NS(=O)(=O)c2c(I)cccc2OCC(F)F)c(=O)n1C1CC1` [Compound 1.508] are “very good herbicidal action” and “very good herbidical action”.
On to `CC(C)Oc1nn(C(=O)NS(=O)(=O)c2cccc(Cl)c2I)c(=O)n1C` [Compound 1.831], for which the “herbicidal action against weed plants (effect scored visually)” value in assay [1] is listed as “very good herbicidal action”. The “herbicidal action against weed plants (visual scoring of plant damage or emergence damage)” value in assay [2] was “very good herbidical action”.
Taken in the same sequence, the figures for `CCCc1ccc(S(=O)(=O)NC(=O)n2nc(OCC)n(C)c2=O)c(I)c1` [Compound 1.877] were “very good herbicidal action” and “very good herbidical action”.
Taken in the same sequence, the figures for `CCCOc1cccc(I)c1S(=O)(=O)NC(=O)n1nc(OCCC)n(C2CC2)c1=O` [Compound 1.244] were “very good herbicidal action” and “very good herbidical action”.
On the same counts, the results for `CCOc1nn(C(=O)NS(=O)(=O)c2c(Cl)cc(C(F)(F)F)cc2I)c(=O)n1C1CC1` [Compound 1.847] are “very good herbicidal action” and “very good herbidical action”.
For the compound `COc1nn(C(=O)NS(=O)(=O)c2c(Cl)ccc(Cl)c2I)c(=O)n1C1CC1` [Compound 1.853], the “herbicidal action against weed plants (effect scored visually)” value in assay [1] is “very good herbicidal action”. Further, the “herbicidal action against weed plants (visual scoring of plant damage or emergence damage)” value in assay [2] was “very good herbidical action”.
Take `CCCOc1nn(C(=O)NS(=O)(=O)c2ccc(F)cc2I)c(=O)n1C1CC1` [Compound 1.827]: the “herbicidal action against weed plants (effect scored visually)” value in assay [1] was “very good herbicidal action”. For the same compound, in assay [2], the “herbicidal action against weed plants (visual scoring of plant damage or emergence damage)” value is reported as “very good herbidical action”.
Taken in the same sequence, the figures for `CCOc1nn(C(=O)NS(=O)(=O)c2c(I)cccc2OC(F)F)c(=O)n1C` [Compound 1.463] were “very good herbicidal action” and “very good herbidical action”.
Taken in the same sequence, the figures for `CCCOc1cccc(I)c1S(=O)(=O)NC(=O)n1nc(SCC)n(C)c1=O` [Compound 1.237] were “very good herbicidal action” and “very good herbidical action”.
`CCCOc1cccc(I)c1S(=O)(=O)NC(=O)n1nc(OC(C)C)n(C)c1=O` [Compound 1.236]: the “herbicidal action against weed plants (effect scored visually)” value in assay [1] was “very good herbicidal action”. For the same compound, the “herbicidal action against weed plants (visual scoring of plant damage or emergence damage)” value in assay [2] is given as “very good herbidical action”.
Taken in the same sequence, the figures for `CCCCc1ccc(S(=O)(=O)NC(=O)n2nc(OCCC)n(C3CC3)c2=O)c(I)c1` [Compound 1.888] were “very good herbicidal action” and “very good herbidical action”.
With `CCCOc1nn(C(=O)NS(=O)(=O)c2c(I)cccc2OCC(F)F)c(=O)n1C` [Compound 1.505], the “herbicidal action against weed plants (effect scored visually)” value in assay [1] is “very good herbicidal action”. Besides, the “herbicidal action against weed plants (visual scoring of plant damage or emergence damage)” value in assay [2] is “very good herbidical action”.
`CCOc1nn(C(=O)NS(=O)(=O)c2c(I)cccc2OCC(C)C)c(=O)n1C` [Compound 1.290]: the “herbicidal action against weed plants (effect scored visually)” value in assay [1] is “very good herbicidal action”. In assay [2], the “herbicidal action against weed plants (visual scoring of plant damage or emergence damage)” value is “very good herbidical action”.
As for `CCOc1nn(C(=O)NS(=O)(=O)c2cccc(Cl)c2I)c(=O)n1C1CC1` [Compound 1.833], the “herbicidal action against weed plants (effect scored visually)” value in assay [1] was “very good herbicidal action”. In addition, the “herbicidal action against weed plants (visual scoring of plant damage or emergence damage)” value in assay [2] is reported as “very good herbidical action”.
Regarding `CCCOc1nn(C(=O)NS(=O)(=O)c2c(I)cccc2OCC(F)(F)C(F)(F)F)c(=O)n1C` [Compound 1.549], the “herbicidal action against weed plants (effect scored visually)” value in assay [1] was “very good herbicidal action”. Besides, the “herbicidal action against weed plants (visual scoring of plant damage or emergence damage)” value in assay [2] is given as “very good herbidical action”.
